In publication PMC2763345 (PLoS Pathogens, 2009):
≈ marks a conversion by molar mass, not a printed value.

Experiments:
[1] = tested on: BCG Rv3790/DprE1 Cys387Ser (BN2); assay type: cell-based, M. bovis BCG
[2] = tested on: M. smegmatis Rv3790/DprE1 Cys387Gly (MN47); assay type: cell-based
[3] = tested on: M. smegmatis Rv3790/DprE1 Cys387Ser (MN84); assay type: cell-based

SMILES	MIC [1] [µg/mL]	MIC [2] [µg/mL]	MIC [3] [µg/mL]
COc1ccc(OCCNC(=O)c2cc([N+](=O)[O-])cc([N+](=O)[O-])c2)cc1 [Compound 8, N-(2-(4-methoxyphenoxy)ethyl)-3,5-dinitrobenzamide]	> 10		
O=C(NCCOCc1ccccc1)c1cc([N+](=O)[O-])cc([N+](=O)[O-])c1 [Compound 7, N-(2-(benzyloxy)ethyl)-3,5-dinitrobenzamide]	> 10		
CO[C@H]1/C=C/O[C@@]2(C)Oc3c(C)c(O)c4c(O)c(c(/C=N/N5CCN(C)CC5)c(O)c4c3C2=O)NC(=O)/C(C)=C\C=C\[C@H](C)[C@H](O)[C@@H](C)[C@@H](O)[C@@H](C)[C@H](OC(C)=O)[C@@H]1C [Rifampin]	0.31 (≈ 0.377 µM)	0.31 (≈ 0.377 µM)	0.31 (≈ 0.377 µM)
